Results from ChEMBL document CHEMBL1201862, “PubChem BioAssay data set” (2004).
“And” between values parts separate entries of the source, which are not always exact repeats. Equal values may be shown once.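 Following 48 hours of exposure in 96-well plates, responses at five concentrations were used to interpolate endpoints linearly. The concentration for 50% growth inhibition is given as GI50.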 The source made the active and inactive calls. Rule as the data show it: active = GI50 up to about 1.1 µM and inactive = higher.

How the values were obtained:
Assay in all cases: NCI tumour cell line growth inhibition, 48 h
T47D = system: T47D
RPMI-8226 = system: RPMI-8226
SK-MEL-5 = system: SK-MEL-5
SF-268 = system: SF-268
SW-620 = system: SW-620
Hs-578T = system: Hs-578T
OVCAR-4 = system: OVCAR-4
K562 = system: K562
OVCAR-3 = system: OVCAR-3
HOP-62 = system: HOP-62
SF-295 = system: SF-295
HOP-92 = system: HOP-92
OVCAR-5 = system: OVCAR-5
NCI-H23 = system: NCI-H23
OVCAR-8 = system: OVCAR-8
M14 = system: M14
NCI-H460 = system: NCI-H460
UACC-62 = system: UACC-62
CAKI-1 = system: CAKI-1
PC-3 = system: PC-3

| SMILES | GI50 (T47D) | GI50 (RPMI-8226) | GI50 (SK-MEL-5) | GI50 (SF-268) | GI50 (SW-620) | GI50 (Hs-578T) | GI50 (OVCAR-4) | GI50 (K562) | GI50 (OVCAR-3) | GI50 (HOP-62) | GI50 (SF-295) | GI50 (HOP-92) | GI50 (OVCAR-5) | GI50 (NCI-H23) | GI50 (OVCAR-8) | GI50 (M14) | GI50 (NCI-H460) | GI50 (UACC-62) | GI50 (CAKI-1) | GI50 (PC-3) |
| --- | --- | --- | --- | --- | --- | --- | --- | --- | --- | --- | --- | --- | --- | --- | --- | --- | --- | --- | --- | --- |
| CCc1nc(N)nc(N)c1-c1ccc(Cl)c(N=[N+]=[N-])c1 | 25.3 µM (inactive) | 12.1 µM (inactive) | 3.74 µM (inactive) | 6.4 µM (inactive) | 2.42 µM (inactive) | 27.4 µM (inactive) | 22.4 µM (inactive) | 0.531 µM (active) | 13.4 µM (inactive) | 9.53 µM (inactive) | 2.84 µM (inactive) | 10.7 µM (inactive) | 21.8 µM (inactive) | 4.23 µM (inactive) |  |  |  |  |  |  |
| COC(=O)C(C(=O)C(=O)Nc1ccc(Br)cc1)c1nc2ccc(Cl)cc2nc1O (stereo not drawn) |  | > 100 µM (inactive) | > 100 µM (inactive) | > 100 µM (inactive) | > 20 µM (inactive) |  | > 34.5 µM (inactive) | > 67.8 µM (inactive) | > 100 µM (inactive) | > 100 µM (inactive) | > 100 µM (inactive) | > 100 µM (inactive) | > 100 µM (inactive) | > 100 µM (inactive) | > 100 µM (inactive) | > 100 µM (inactive) | > 57.1 µM (inactive) | > 100 µM (inactive) | > 100 µM (inactive) |  |
| CC(N)C(=O)OCN1C(=O)C2C3C=CC(C2C1=O)C1C2C(=O)N(COC(=O)C(C)N)C(=O)C2C31 (stereo not drawn) |  | 23.9 µM (inactive) | 18.1 µM (inactive) | 21.3 µM (inactive) | 24.4 µM (inactive) |  | 20.8 µM (inactive) | 24.8 µM (inactive) | 33.6 µM (inactive) | > 100 µM (inactive) | > 100 µM (inactive) | 57.5 µM (inactive) | 47.8 µM (inactive) | 22.1 µM (inactive) | 22.1 µM (inactive) | 20.9 µM (inactive) | 17.6 µM (inactive) | 22.8 µM (inactive) | 72.6 µM (inactive) |  |
| COc1ccc2oc3cccc(NCCN(C)C)c3c(=O)c2c1 |  | 12.6 µM (inactive) | 16.7 µM (inactive) | 13.3 µM (inactive) | 5.08 µM (inactive) |  | 12.7 µM (inactive) | 9.35 µM (inactive) | 14.7 µM (inactive) | 15.2 µM (inactive) | 16.1 µM (inactive) | 13.8 µM (inactive) | 12.3 µM (inactive) | 17.7 µM (inactive) | 11.1 µM (inactive) | 15.8 µM (inactive) | 8.83 µM (inactive) | 12.7 µM (inactive) | 4.69 µM (inactive) |  |
| O=C(Nc1nnc(-c2c(Cl)c(Cl)c(Cl)c(Cl)c2-c2nc3cc(C(=O)c4ccccc4)ccc3[nH]2)o1)c1ccccc1 | 16.4 µM (inactive) | 12.4 µM (inactive) | 5.07 µM (inactive) |  | 19.9 µM (inactive) |  | 21 µM (inactive) | 5.78 µM (inactive) | 15 µM (inactive) | 10.4 µM (inactive) | 9.46 µM (inactive) | 15.5 µM (inactive) | 26.4 µM (inactive) | 18.9 µM (inactive) | 26.9 µM (inactive) | 15.4 µM (inactive) |  |  | 32.3 µM (inactive) | 13 µM (inactive) |
| CCOP(=O)(OCC)/C(C#N)=C/c1ncc[nH]1 |  | > 100 µM (inactive) | > 100 µM (inactive) | > 100 µM (inactive) | > 100 µM (inactive) | > 100 µM (inactive) | > 100 µM (inactive) | > 100 µM (inactive) | > 100 µM (inactive) | > 100 µM (inactive) | > 100 µM (inactive) | > 100 µM (inactive) | > 100 µM (inactive) | > 100 µM (inactive) | > 100 µM (inactive) | > 100 µM (inactive) | > 100 µM (inactive) | > 100 µM (inactive) | > 100 µM (inactive) | > 100 µM (inactive) |
| C=CCc1cc2cccc(OC)c2oc1=O |  | > 100 µM (inactive) | 87.3 µM (inactive) | > 100 µM (inactive) | > 100 µM (inactive) |  | > 100 µM (inactive) | 75.5 µM (inactive) | > 100 µM (inactive) | > 100 µM (inactive) | > 100 µM (inactive) | 92.3 µM (inactive) | 66.1 µM (inactive) | > 100 µM (inactive) | > 100 µM (inactive) | > 100 µM (inactive) | > 100 µM (inactive) | > 100 µM (inactive) | > 100 µM (inactive) |  |
| COc1ccc(C2Oc3c(cccc3-c3c(-c4ccc(O)cc4)oc4cc(O)cc(O)c4c3=O)C(=O)C2O)cc1O (stereo not drawn) | > 100 µM (inactive) | 83.2 µM (inactive) | > 100 µM (inactive) | > 100 µM (inactive) | > 100 µM (inactive) |  | > 100 µM (inactive) | > 100 µM (inactive) | > 100 µM (inactive) | > 100 µM (inactive) | > 100 µM (inactive) | > 100 µM (inactive) | > 100 µM (inactive) | > 100 µM (inactive) | > 100 µM (inactive) | > 100 µM (inactive) | > 100 µM (inactive) | > 100 µM (inactive) |  | > 100 µM (inactive) |
| COc1ccc2cc1Oc1ccc(cc1)C[C@H]1c3cc(c(OC)cc3CCN1C)Oc1c(OC)c(OC)cc3c1[C@H](C2)N(C)CC3 [FANCHININ] |  | 4.44 µM (inactive) | 6.1 µM (inactive) and 57.3 µM (inactive) | 74.6 µM (inactive) and 8.05 µM (inactive) |  | 8.63 µM (inactive) and 30.1 µM (inactive) | 2.42 µM (inactive) | 41.2 µM (inactive) and 1.57 µM (inactive) | 7.46 µM (inactive) | 5.94 µM (inactive) | 8.93 µM (inactive) and 36.2 µM (inactive) | 1.79 µM (inactive) and 57.1 µM (inactive) |  | 77.4 µM (inactive) and 8.43 µM (inactive) | 8.38 µM (inactive) and 53.7 µM (inactive) | 26.2 µM (inactive) and 260 nM (active) | 6.71 µM (inactive) |  |  |  |
| CC1(C)SCc2nc3ncccc3n21 |  | > 100 µM (inactive) | > 100 µM (inactive) | > 100 µM (inactive) | > 100 µM (inactive) |  | > 100 µM (inactive) | > 100 µM (inactive) | > 100 µM (inactive) | > 100 µM (inactive) | > 100 µM (inactive) | > 100 µM (inactive) | > 100 µM (inactive) | > 100 µM (inactive) | > 100 µM (inactive) | > 100 µM (inactive) | > 100 µM (inactive) | > 100 µM (inactive) | > 100 µM (inactive) |  |
| O=C(O)Cc1ccc(-n2nnc3c(=O)[nH][nH]c(=O)c32)cc1 |  | > 100 µM (inactive) | > 100 µM (inactive) |  |  |  | > 100 µM (inactive) | > 100 µM (inactive) | > 100 µM (inactive) | > 100 µM (inactive) | > 100 µM (inactive) | > 100 µM (inactive) | > 100 µM (inactive) | > 100 µM (inactive) | > 100 µM (inactive) | > 100 µM (inactive) | > 100 µM (inactive) |  | > 100 µM (inactive) | > 100 µM (inactive) |
| O=C1CCC2(c3ccccc3)Nc3ccccc3N12 (stereo not drawn) |  | > 100 µM (inactive) | > 100 µM (inactive) | > 100 µM (inactive) | > 100 µM (inactive) |  | > 100 µM (inactive) | > 100 µM (inactive) | > 100 µM (inactive) | > 100 µM (inactive) | > 100 µM (inactive) | > 100 µM (inactive) | > 100 µM (inactive) | > 100 µM (inactive) | > 100 µM (inactive) | > 100 µM (inactive) | > 100 µM (inactive) | > 100 µM (inactive) | > 100 µM (inactive) |  |
| O=c1c2cc([N+](=O)[O-])ccc2[nH]n1Cc1ccccc1Cl |  | 30.1 µM (inactive) | 34.7 µM (inactive) | > 100 µM (inactive) | 88.9 µM (inactive) | 48.8 µM (inactive) | > 100 µM (inactive) | 48.8 µM (inactive) | > 100 µM (inactive) | 38.1 µM (inactive) | > 100 µM (inactive) | 27.8 µM (inactive) | > 100 µM (inactive) | 59.6 µM (inactive) | 75.7 µM (inactive) | 86.1 µM (inactive) | 31 µM (inactive) | > 100 µM (inactive) | > 100 µM (inactive) | 93.8 µM (inactive) |
| C[C@]12Cc3cn[nH]c3C(=O)C1CC[C@@H]1C2CC[C@@]2(C)C1CC[C@@H]2O (stereo partly drawn) |  | > 100 µM (inactive) | > 100 µM (inactive) | > 100 µM (inactive) | > 100 µM (inactive) |  | > 100 µM (inactive) | > 100 µM (inactive) | > 100 µM (inactive) | > 100 µM (inactive) | > 100 µM (inactive) | > 100 µM (inactive) | > 100 µM (inactive) | > 100 µM (inactive) | > 100 µM (inactive) | > 100 µM (inactive) | > 100 µM (inactive) | > 100 µM (inactive) | > 100 µM (inactive) |  |
| Sc1ncnc2c1ncn2C1CCCO1 (stereo not drawn) |  | 99.5 µM (inactive) | > 100 µM (inactive) | > 100 µM (inactive) | > 100 µM (inactive) |  | 51.1 µM (inactive) | 38.8 µM (inactive) | 22.6 µM (inactive) | 64.4 µM (inactive) | > 100 µM (inactive) | 39.3 µM (inactive) | > 100 µM (inactive) | > 100 µM (inactive) | > 100 µM (inactive) | 43.3 µM (inactive) | > 100 µM (inactive) | 76.2 µM (inactive) | > 100 µM (inactive) |  |
| O=C(O)C[C@@H]1[C@@H](O)[C@@H](O)CN2C(=O)c3ccccc3[C@H]12 | > 100 µM (inactive) | > 100 µM (inactive) | > 100 µM (inactive) | > 100 µM (inactive) | > 100 µM (inactive) |  | > 100 µM (inactive) | > 100 µM (inactive) |  | > 100 µM (inactive) | > 100 µM (inactive) |  | > 100 µM (inactive) | > 100 µM (inactive) | > 100 µM (inactive) | > 100 µM (inactive) | > 100 µM (inactive) | > 100 µM (inactive) | > 100 µM (inactive) | > 100 µM (inactive) |
